Laboratory results as given in article PMC11480411, “Mucosal sugars delineate pyrazine vs pyrazinone autoinducer signaling in Klebsiella oxytoca” (Nature Communications, 2024).

Columns and labels:
Experiment in all cases: PRESTO-Tango GPCR screen
Assay type in all cases: cell-based
Conditions in all cases: 100 µM
[1] = molecular target: T1, MTNR1A (Homo sapiens, UniProt P48039)
T1 construct: purchased PRESTO-Tango GPCR kit (Roth lab / Addgene)
Method: (§1) The PRESTO-Tango analyses were performed as previously published. Briefly, HTLA cells, a HEK293 cell line that stably expresses β-arrestin-TEV and tTA-Luciferase (a kind gift from Gilad Barnea, Brown University), were plated in 96-well tissue culture plates (Eppendorf) in DMEM containing 10% FBS and 1% Penicillin/Streptomycin. One day after plating (after reaching approximately 90% confluence), 200 ng per well GPCR-Tango plasmids[37] in 20 μL DMEM were individually mixed with 400 ng polyethylenimine (Polysciences) in an equal volume of DMEM and incubated for 20 min at room temperature before adding the transfection mixture to the HTLA cells. 16-24 h after transfection, medium was replaced with 180 μL fresh DMEM containing 1% Penicillin/Streptomycin and 10 mM HEPES and 20 μL of 3 or 3-Homo to reach a final concentration of 100 μM. Supernatants were aspirated 20 h after stimulation and 50 μl per well of Bright-Glo solution (Promega) diluted 20-fold with PBS containing 20 mM HEPES was added into each well. After 15 min incubation at room temperature, luminescence was quantified using a Spectramax i3x microplate reader (Molecular Devices). Activation fold for each sample was calculated by dividing relative luminescence units (RLU) for each condition by RLUs from PBS control. Dose response curves of each chemical were performed in a similar way with varying the ligand concentration from 10^−4 M to 10^−15 M.

[2] = molecular target: T2, CXCR7 (Homo sapiens, UniProt P25106)
T2 construct: purchased PRESTO-Tango GPCR kit (Roth lab / Addgene)
Method: as §1

[3] = molecular target: T3, GPR78 (Homo sapiens, UniProt Q96P69)
T3 construct: purchased PRESTO-Tango GPCR kit (Roth lab / Addgene)
Method: as §1

[4] = molecular target: T4, GPR3 (Homo sapiens, UniProt P46089)
T4 construct: purchased PRESTO-Tango GPCR kit (Roth lab / Addgene)
Method: as §1

[5] = molecular target: T5, GPR171 (Homo sapiens, UniProt O14626)
T5 construct: purchased PRESTO-Tango GPCR kit (Roth lab / Addgene)
T5 sequence (O14626 whole entry): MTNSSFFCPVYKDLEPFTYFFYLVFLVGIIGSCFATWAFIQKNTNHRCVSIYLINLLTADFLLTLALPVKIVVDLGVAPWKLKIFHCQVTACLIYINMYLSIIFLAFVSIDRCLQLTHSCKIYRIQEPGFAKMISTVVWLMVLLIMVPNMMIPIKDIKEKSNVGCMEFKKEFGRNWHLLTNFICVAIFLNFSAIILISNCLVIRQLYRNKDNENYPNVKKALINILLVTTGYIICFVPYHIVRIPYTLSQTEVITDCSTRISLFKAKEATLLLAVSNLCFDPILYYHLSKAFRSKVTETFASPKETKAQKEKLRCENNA
Method: as §1

[6] = molecular target: T6, MRGPRG (Homo sapiens, UniProt Q86SM5)
T6 construct: purchased PRESTO-Tango GPCR kit (Roth lab / Addgene)
T6 sequence (Q86SM5 whole entry): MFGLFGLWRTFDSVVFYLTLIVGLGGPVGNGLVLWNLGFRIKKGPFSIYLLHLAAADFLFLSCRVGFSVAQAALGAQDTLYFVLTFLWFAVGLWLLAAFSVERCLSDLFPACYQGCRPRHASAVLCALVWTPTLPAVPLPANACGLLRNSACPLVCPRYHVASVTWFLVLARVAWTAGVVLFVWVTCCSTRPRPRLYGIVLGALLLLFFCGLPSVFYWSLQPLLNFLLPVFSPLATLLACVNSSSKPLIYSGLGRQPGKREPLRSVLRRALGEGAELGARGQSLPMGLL
Method: as §1

[7] = molecular target: T7, TAAR8 (Homo sapiens, UniProt Q969N4)
T7 construct: purchased PRESTO-Tango GPCR kit (Roth lab / Addgene)
Method: as §1

[8] = molecular target: T8, CALCRb (Homo sapiens, UniProt P30988)
T8 construct: purchased PRESTO-Tango GPCR kit (Roth lab / Addgene)
Method: as §1

[9] = molecular target: T9, GPR12 (Homo sapiens, UniProt P47775)
T9 construct: purchased PRESTO-Tango GPCR kit (Roth lab / Addgene)
T9 sequence (P47775 whole entry): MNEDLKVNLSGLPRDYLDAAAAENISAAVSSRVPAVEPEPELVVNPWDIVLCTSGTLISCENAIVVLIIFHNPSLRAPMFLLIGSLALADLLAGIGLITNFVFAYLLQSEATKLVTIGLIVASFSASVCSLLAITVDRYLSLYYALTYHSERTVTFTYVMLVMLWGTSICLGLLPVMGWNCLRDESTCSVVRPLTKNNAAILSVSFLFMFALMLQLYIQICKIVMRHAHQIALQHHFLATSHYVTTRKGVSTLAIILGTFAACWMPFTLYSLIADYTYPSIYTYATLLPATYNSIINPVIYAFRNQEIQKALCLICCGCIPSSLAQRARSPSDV
Method: as §1

[10] = molecular target: T10, GPR141 (Homo sapiens, UniProt Q7Z602)
T10 construct: purchased PRESTO-Tango GPCR kit (Roth lab / Addgene)
T10 sequence (Q7Z602 whole entry): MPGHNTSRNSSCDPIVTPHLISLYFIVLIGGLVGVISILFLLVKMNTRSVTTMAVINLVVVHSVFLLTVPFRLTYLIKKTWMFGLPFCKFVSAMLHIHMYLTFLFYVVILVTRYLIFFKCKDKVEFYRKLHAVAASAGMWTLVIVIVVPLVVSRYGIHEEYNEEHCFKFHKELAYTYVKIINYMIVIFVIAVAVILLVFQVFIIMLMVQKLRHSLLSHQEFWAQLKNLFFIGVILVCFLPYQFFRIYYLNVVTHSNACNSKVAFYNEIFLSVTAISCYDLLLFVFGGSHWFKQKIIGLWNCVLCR
Method: as §1

[11] = molecular target: T11, GPR101 (Homo sapiens, UniProt Q96P66)
T11 construct: purchased PRESTO-Tango GPCR kit (Roth lab / Addgene)
Method: as §1

[12] = molecular target: T12, BDKBR2 (Homo sapiens, UniProt P30411)
T12 construct: purchased PRESTO-Tango GPCR kit (Roth lab / Addgene)
Method: as §1

[13] = molecular target: T13, GPR120 (Homo sapiens, UniProt Q5NUL3)
T13 construct: purchased PRESTO-Tango GPCR kit (Roth lab / Addgene)
Method: as §1

[14] = molecular target: T14, CCR7 (Homo sapiens, UniProt P32248)
T14 construct: purchased PRESTO-Tango GPCR kit (Roth lab / Addgene)
T14 sequence (P32248 25-378): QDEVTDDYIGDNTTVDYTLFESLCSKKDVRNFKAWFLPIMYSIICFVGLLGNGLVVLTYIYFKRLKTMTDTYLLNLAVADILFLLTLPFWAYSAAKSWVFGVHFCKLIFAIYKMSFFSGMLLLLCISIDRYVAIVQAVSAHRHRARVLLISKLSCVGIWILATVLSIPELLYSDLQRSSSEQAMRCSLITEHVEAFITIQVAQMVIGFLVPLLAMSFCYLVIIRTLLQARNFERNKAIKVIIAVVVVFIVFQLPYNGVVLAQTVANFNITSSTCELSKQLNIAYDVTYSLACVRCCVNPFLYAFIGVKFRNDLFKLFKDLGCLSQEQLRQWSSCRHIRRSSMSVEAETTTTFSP
Method: as §1

[15] = molecular target: T15, GPR55 (Homo sapiens, UniProt Q9Y2T6)
T15 construct: purchased PRESTO-Tango GPCR kit (Roth lab / Addgene)
Method: as §1

[16] = molecular target: T16, SSTR1 (Homo sapiens, UniProt P30872)
T16 construct: purchased PRESTO-Tango GPCR kit (Roth lab / Addgene)
T16 sequence (P30872 whole entry): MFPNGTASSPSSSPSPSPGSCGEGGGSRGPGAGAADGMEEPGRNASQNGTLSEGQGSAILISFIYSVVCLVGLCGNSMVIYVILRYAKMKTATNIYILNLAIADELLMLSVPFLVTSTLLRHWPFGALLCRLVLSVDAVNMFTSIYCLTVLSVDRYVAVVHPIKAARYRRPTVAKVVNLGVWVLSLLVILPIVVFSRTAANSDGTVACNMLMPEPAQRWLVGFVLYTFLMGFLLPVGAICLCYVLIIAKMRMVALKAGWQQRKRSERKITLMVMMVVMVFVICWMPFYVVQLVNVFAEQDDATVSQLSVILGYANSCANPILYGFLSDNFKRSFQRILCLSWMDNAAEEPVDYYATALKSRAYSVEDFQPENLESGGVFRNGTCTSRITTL
Method: as §1

[17] = molecular target: T17, GPR88 (Homo sapiens, UniProt Q9GZN0)
T17 construct: purchased PRESTO-Tango GPCR kit (Roth lab / Addgene)
Method: as §1

[18] = molecular target: T18, CRHR2 (Homo sapiens, UniProt Q13324)
T18 construct: purchased PRESTO-Tango GPCR kit (Roth lab / Addgene)
T18 sequence (Q13324 whole entry): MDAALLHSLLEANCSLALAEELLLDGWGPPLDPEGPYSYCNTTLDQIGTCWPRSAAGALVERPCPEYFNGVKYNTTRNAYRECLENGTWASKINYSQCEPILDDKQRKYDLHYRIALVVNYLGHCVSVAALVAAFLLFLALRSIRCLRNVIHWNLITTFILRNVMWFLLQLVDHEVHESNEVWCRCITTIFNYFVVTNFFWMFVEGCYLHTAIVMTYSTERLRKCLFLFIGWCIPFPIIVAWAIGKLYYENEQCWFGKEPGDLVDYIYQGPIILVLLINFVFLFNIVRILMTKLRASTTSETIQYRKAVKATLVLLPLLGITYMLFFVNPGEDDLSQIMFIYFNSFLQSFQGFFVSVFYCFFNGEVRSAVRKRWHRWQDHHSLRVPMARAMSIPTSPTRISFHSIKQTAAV
Method: as §1

[19] = molecular target: T19, P2RY12 (Homo sapiens, UniProt Q9H244)
T19 construct: purchased PRESTO-Tango GPCR kit (Roth lab / Addgene)
Method: as §1

[20] = molecular target: T20, F2RL1 (Homo sapiens, UniProt P55085)
T20 construct: purchased PRESTO-Tango GPCR kit (Roth lab / Addgene)
Method: as §1

[21] = molecular target: T21, F2R (Homo sapiens, UniProt P25116)
T21 construct: purchased PRESTO-Tango GPCR kit (Roth lab / Addgene)
T21 sequence (P25116 22-425): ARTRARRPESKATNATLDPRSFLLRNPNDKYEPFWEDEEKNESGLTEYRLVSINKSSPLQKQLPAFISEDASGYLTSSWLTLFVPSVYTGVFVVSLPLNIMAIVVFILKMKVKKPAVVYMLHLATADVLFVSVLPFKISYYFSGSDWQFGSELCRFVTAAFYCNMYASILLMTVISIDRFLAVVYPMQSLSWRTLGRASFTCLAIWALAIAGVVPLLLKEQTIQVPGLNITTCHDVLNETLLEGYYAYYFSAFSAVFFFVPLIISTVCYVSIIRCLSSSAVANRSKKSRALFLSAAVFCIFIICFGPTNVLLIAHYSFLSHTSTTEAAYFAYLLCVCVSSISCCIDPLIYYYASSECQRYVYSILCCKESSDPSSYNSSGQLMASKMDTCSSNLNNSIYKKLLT
Method: as §1

[22] = molecular target: T22, PK2 (Homo sapiens, UniProt Q8NFJ6)
T22 construct: purchased PRESTO-Tango GPCR kit (Roth lab / Addgene)
T22 sequence (Q8NFJ6 whole entry): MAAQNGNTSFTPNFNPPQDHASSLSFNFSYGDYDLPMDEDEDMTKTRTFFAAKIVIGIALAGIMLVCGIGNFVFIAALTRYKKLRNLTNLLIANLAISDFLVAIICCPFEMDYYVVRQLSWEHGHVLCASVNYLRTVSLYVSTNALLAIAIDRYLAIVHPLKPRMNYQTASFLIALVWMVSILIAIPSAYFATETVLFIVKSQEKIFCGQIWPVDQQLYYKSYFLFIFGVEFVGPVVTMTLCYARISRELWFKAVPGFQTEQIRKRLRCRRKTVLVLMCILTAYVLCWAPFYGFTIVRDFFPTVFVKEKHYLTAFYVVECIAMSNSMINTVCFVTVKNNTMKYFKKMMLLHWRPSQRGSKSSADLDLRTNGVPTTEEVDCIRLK
Method: as §1

[23] = molecular target: T23, GPR150 (Homo sapiens, UniProt Q8NGU9)
T23 construct: purchased PRESTO-Tango GPCR kit (Roth lab / Addgene)
Method: as §1

[24] = molecular target: T24, HCTR2 (Homo sapiens, UniProt O43614)
T24 construct: purchased PRESTO-Tango GPCR kit (Roth lab / Addgene)
T24 sequence (O43614 whole entry): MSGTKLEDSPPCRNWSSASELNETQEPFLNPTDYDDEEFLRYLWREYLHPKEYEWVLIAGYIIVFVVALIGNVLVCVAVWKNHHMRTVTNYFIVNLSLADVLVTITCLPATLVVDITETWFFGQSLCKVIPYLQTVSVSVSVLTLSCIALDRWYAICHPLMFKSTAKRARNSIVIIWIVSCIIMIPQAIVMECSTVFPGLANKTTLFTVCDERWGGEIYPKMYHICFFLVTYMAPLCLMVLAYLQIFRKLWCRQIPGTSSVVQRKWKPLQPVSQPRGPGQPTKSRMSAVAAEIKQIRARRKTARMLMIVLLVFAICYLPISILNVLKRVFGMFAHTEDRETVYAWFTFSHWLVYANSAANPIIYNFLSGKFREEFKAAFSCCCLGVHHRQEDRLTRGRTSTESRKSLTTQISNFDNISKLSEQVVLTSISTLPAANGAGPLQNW
Method: as §1

[25] = molecular target: T25, GPRC5C (Homo sapiens, UniProt Q9NQ84)
T25 construct: purchased PRESTO-Tango GPCR kit (Roth lab / Addgene)
Method: as §1

[26] = molecular target: T26, QRFP (Homo sapiens, UniProt Q96P65)
T26 construct: purchased PRESTO-Tango GPCR kit (Roth lab / Addgene)
Method: as §1

[27] = molecular target: T27, CCKBR (Homo sapiens, UniProt P32239)
T27 construct: purchased PRESTO-Tango GPCR kit (Roth lab / Addgene)
Method: as §1

[28] = molecular target: T28, LTB4R2B (Homo sapiens, UniProt Q9NPC1)
T28 construct: purchased PRESTO-Tango GPCR kit (Roth lab / Addgene)
Method: as §1

[29] = molecular target: T29, TACR3 (Homo sapiens, UniProt P29371)
T29 construct: purchased PRESTO-Tango GPCR kit (Roth lab / Addgene)
T29 sequence (P29371 whole entry): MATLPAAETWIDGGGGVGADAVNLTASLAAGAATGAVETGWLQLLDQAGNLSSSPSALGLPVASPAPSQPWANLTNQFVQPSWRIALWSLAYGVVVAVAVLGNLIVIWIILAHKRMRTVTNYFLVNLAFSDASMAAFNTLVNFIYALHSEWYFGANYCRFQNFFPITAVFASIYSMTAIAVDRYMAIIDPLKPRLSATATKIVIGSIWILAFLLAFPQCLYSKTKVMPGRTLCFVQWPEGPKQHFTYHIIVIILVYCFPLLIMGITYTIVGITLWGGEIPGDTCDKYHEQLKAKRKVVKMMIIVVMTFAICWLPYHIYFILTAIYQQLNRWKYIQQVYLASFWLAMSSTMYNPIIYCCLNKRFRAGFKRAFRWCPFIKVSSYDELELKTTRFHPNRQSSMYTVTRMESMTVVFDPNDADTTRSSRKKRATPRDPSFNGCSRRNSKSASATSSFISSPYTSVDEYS
Method: as §1

[30] = molecular target: T30, GPR35 (Homo sapiens, UniProt Q9HC97)
T30 construct: purchased PRESTO-Tango GPCR kit (Roth lab / Addgene)
Method: as §1

[31] = molecular target: T31, GPR45 (Homo sapiens, UniProt Q9Y5Y3)
T31 construct: purchased PRESTO-Tango GPCR kit (Roth lab / Addgene)
Method: as §1

[32] = molecular target: T32, GPR156 (Homo sapiens, UniProt Q8NFN8)
T32 construct: purchased PRESTO-Tango GPCR kit (Roth lab / Addgene)
T32 sequence (Q8NFN8 whole entry): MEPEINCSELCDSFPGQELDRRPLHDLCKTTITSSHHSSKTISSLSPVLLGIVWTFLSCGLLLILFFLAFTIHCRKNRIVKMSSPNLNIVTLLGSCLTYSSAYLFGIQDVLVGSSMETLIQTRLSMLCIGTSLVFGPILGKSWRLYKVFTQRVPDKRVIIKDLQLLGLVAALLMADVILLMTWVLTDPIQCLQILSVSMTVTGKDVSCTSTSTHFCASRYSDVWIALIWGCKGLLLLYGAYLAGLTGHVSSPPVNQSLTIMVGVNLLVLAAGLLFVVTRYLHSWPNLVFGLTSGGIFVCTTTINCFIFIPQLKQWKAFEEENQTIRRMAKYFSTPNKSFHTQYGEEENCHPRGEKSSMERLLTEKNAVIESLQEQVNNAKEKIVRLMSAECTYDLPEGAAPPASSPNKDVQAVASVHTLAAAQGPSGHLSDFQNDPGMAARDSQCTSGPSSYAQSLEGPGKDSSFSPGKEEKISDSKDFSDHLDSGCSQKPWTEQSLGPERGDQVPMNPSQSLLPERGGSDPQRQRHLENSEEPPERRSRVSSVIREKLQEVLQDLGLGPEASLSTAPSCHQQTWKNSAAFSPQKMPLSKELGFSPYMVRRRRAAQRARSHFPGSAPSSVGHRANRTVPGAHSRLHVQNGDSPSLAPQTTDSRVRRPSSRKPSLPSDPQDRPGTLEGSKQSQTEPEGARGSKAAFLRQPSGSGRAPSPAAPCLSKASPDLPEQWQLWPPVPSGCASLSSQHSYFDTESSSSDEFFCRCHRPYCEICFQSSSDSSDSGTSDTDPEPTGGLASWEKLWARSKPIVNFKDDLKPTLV
Method: as §1

[33] = molecular target: T33, ADRA2B (Homo sapiens, UniProt P18089)
T33 construct: purchased PRESTO-Tango GPCR kit (Roth lab / Addgene)
Method: as §1

[34] = molecular target: T34, S1PR3 (Homo sapiens, UniProt Q99500)
T34 construct: purchased PRESTO-Tango GPCR kit (Roth lab / Addgene)
Method: as §1

[35] = molecular target: T35, FFA3 (Homo sapiens, UniProt O14843)
T35 construct: purchased PRESTO-Tango GPCR kit (Roth lab / Addgene)
Method: as §1

SMILES | GPCR activation (heatmap value) [1] | GPCR activation (heatmap value) [2] | GPCR activation (heatmap value) [3] | GPCR activation (heatmap value) [4] | GPCR activation (heatmap value) [5] | GPCR activation (heatmap value) [6] | GPCR activation (heatmap value) [7] | GPCR activation (heatmap value) [8] | GPCR activation (heatmap value) [9] | GPCR activation (heatmap value) [10] | GPCR activation (heatmap value) [11] | GPCR activation (heatmap value) [12] | GPCR activation (heatmap value) [13] | GPCR activation (heatmap value) [14] | GPCR activation (heatmap value) [15] | GPCR activation (heatmap value) [16] | GPCR activation (heatmap value) [17] | GPCR activation (heatmap value) [18] | GPCR activation (heatmap value) [19] | GPCR activation (heatmap value) [20] | further results
CC(C)Cc1ncc(CCCCNC(=N)N)[nH]c1=O [3-Homo] | -0.06354 | -1.352 | -0.4102 | -1.589 | -0.9424 | -0.5195 | -0.2862 | -1.592 | 0.07278 | 0.2402 | -0.2435 | -0.09391 | 0.1572 | -1.001 | -0.519 | -0.2346 | -0.7293 | -0.3278 | 0.3372 | -0.2678 | GPCR activation (heatmap value) [21]: -0.4507; GPCR activation (heatmap value) [22]: -0.9094; GPCR activation (heatmap value) [23]: -0.9768; GPCR activation (heatmap value) [24]: -1.63; GPCR activation (heatmap value) [25]: 0.07279; GPCR activation (heatmap value) [26]: 0.525; GPCR activation (heatmap value) [27]: 0.2356; GPCR activation (heatmap value) [28]: 0.02731; GPCR activation (heatmap value) [29]: -0.1118; GPCR activation (heatmap value) [30]: 0.1027; GPCR activation (heatmap value) [31]: -0.6461; GPCR activation (heatmap value) [32]: 0.2712; GPCR activation (heatmap value) [33]: -0.5041; GPCR activation (heatmap value) [34]: -0.09323; GPCR activation (heatmap value) [35]: -0.4191
CC(C)Cc1ncc(CCCNC(=N)N)[nH]c1=O [compound 3] | 0.3857 | -0.2802 | -0.2783 | -0.8156 | 0.9197 | -0.5206 | 0.314 | -0.6231 | 0.5588 | -0.1192 | 0.4147 | -0.1686 | 0.8927 | -2.336 | 0.5927 | 0.2369 | -0.2878 | -0.2766 | 0.4559 | 0.6997 | GPCR activation (heatmap value) [21]: -0.02389; GPCR activation (heatmap value) [22]: -0.4477; GPCR activation (heatmap value) [23]: -0.9206; GPCR activation (heatmap value) [24]: -0.2618; GPCR activation (heatmap value) [25]: 0.188; GPCR activation (heatmap value) [26]: 0.1257; GPCR activation (heatmap value) [27]: 0.2979; GPCR activation (heatmap value) [28]: -1.038; GPCR activation (heatmap value) [29]: -0.7714; GPCR activation (heatmap value) [30]: -0.5823; GPCR activation (heatmap value) [31]: 0.4781; GPCR activation (heatmap value) [32]: 0.1542; GPCR activation (heatmap value) [33]: 2.203; GPCR activation (heatmap value) [34]: -0.834; GPCR activation (heatmap value) [35]: -0.2613
